Values joined by “and” are separate entries in the source; they are usually repeats but may differ in a detail not shown here. Equal entries are not always repeated. Toxic doses and inconclusive results are not listed.

For this assay, the system named is L1210 leukemia ip in BDF1 mice, survival T/C. The experiment in a line: NCI In Vivo Anticancer Drug Screen. Data for tumor model L1210 Leukemia (intraperitoneal) in B6D2F1 (BDF1) mice. The following applies: endpoint: mean survival time, higher = longer survival. In short, it runs like this:
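Tumor cells were implanted, animals were treated, and survival was followed. The result divides the treated measurement by the vehicle-control measurement.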

The mark [1] stands for this setting: dose: 100.0 mg/kg/injection, schedule: Q04DX003 (ip), vehicle: saline.
Where [2] appears, read: dose: 200.0 mg/kg/injection, schedule: Q04DX003 (ip), vehicle: saline.
Setting [3] is: dose: 400.0 mg/kg/injection, schedule: Q04DX003 (ip), vehicle: saline.
[4] abbreviates: dose: 50.0 mg/kg/injection, schedule: Q01DX001 (ip), vehicle: carboxymethylcellulose (CMC).
[5] abbreviates: dose: 100.0 mg/kg/injection, schedule: Q01DX001 (ip), vehicle: carboxymethylcellulose (CMC).
The mark [6] stands for this setting: dose: 200.0 mg/kg/injection, schedule: Q01DX001 (ip), vehicle: carboxymethylcellulose (CMC).
The mark [7] stands for this setting: dose: 400.0 mg/kg/injection, schedule: Q01DX001 (ip), vehicle: carboxymethylcellulose (CMC).
Where [8] appears, read: dose: 100.0 mg/kg/injection, schedule: Q01DX009 (ip), vehicle: Klucel (hydroxypropylcellulose) (HPC).
Where [9] appears, read: dose: 100.0 mg/kg/injection, schedule: Q04DX003 (ip), vehicle: Klucel (hydroxypropylcellulose) (HPC).
Where [10] appears, read: dose: 200.0 mg/kg/injection, schedule: Q01DX009 (ip), vehicle: Klucel (hydroxypropylcellulose) (HPC).
Where [11] appears, read: dose: 200.0 mg/kg/injection, schedule: Q04DX003 (ip), vehicle: Klucel (hydroxypropylcellulose) (HPC).
Where [12] appears, read: dose: 400.0 mg/kg/injection, schedule: Q04DX003 (ip), vehicle: Klucel (hydroxypropylcellulose) (HPC).

Consider `CCCC(O)C(C)[N+](=O)[O-]` (stereo not given), for which the T/C runs as follows: under setting [1], 96 % of control; under setting [2], 102 % of control; under setting [3], 96 % of control.
Take `c1ccc([Si](c2ccccc2)(c2ccccc2)c2ccccc2)cc1`: the T/C reads like this: (dose: 100.0 mg/kg/injection, schedule: Q04DX003 (ip), vehicle: saline with Tween-80) 90 % of control; (dose: 200.0 mg/kg/injection, schedule: Q04DX003 (ip), vehicle: saline with Tween-80) 90 % of control; (dose: 400.0 mg/kg/injection, schedule: Q04DX003 (ip), vehicle: saline with Tween-80) 88 % of control.
Regarding `CCOC(=O)n1cnc2ncnc(SC)c21`, the T/C is 102 % of control (dose: 25.0 mg/kg/injection, schedule: Q01DX015 (ip), vehicle: saline); 94 % of control and 106 % of control under setting [4]; 96 % of control (dose: 50.0 mg/kg/injection, schedule: Q01DX015 (ip), vehicle: saline); 109 % of control and 114 % of control under setting [5]; 103 % of control (dose: 100.0 mg/kg/injection, schedule: Q01DX015 (ip), vehicle: saline); 88 % of control under setting [6]. The T/C was 91 % of control (dose: 200.0 mg/kg/injection, schedule: Q01DX015 (ip), vehicle: saline) and 109 % of control under setting [7].
For the molecule `N#CC(C#N)=Cc1ccco1`, the T/C (dose: 5.0 mg/kg/injection, schedule: Q01DX001 (ip), vehicle: saline) was 91 % of control; the T/C (dose: 10.0 mg/kg/injection, schedule: Q01DX001 (ip), vehicle: saline) was 102 % of control; the T/C (dose: 20.0 mg/kg/injection, schedule: Q01DX001 (ip), vehicle: saline) is 100 % of control; the T/C (dose: 40.0 mg/kg/injection, schedule: Q01DX001 (ip), vehicle: saline) is 94 % of control.
As to `O=C(NO)Nc1nc(Cl)c(Cl)nc1Cl`, the T/C (dose: 25.0 mg/kg/injection, schedule: Q01DX009 (ip), vehicle: water) was 94 % of control and the T/C (dose: 50.0 mg/kg/injection, schedule: Q01DX009 (ip), vehicle: water) was 100 % of control.
Take `CC1(C)CC(=O)CC(C)(C)ON1`: the T/C by setting is: (dose: 100.0 mg/kg/injection, schedule: Q04DX002 (ip), vehicle: saline with Tween-80) 99 % of control; (dose: 200.0 mg/kg/injection, schedule: Q04DX002 (ip), vehicle: saline with Tween-80) 99 % of control; (dose: 400.0 mg/kg/injection, schedule: Q04DX002 (ip), vehicle: saline with Tween-80) 99 % of control.
Consider `COC(=O)Nc1c(C)cc(C)cc1C`, for which the T/C by setting is: under setting [1], 94 % of control; under setting [2], 94 % of control; under setting [3], 98 % of control.
Regarding `NC(=S)N/N=C\c1ccccc1/C=N/NC(N)=S`, the T/C is, setting by setting: under setting [4], 109 % of control; under setting [5], 98 % of control; under setting [6], 98 % of control; under setting [7], 98 % of control.
On to `O=Nn1cc(-c2cc3ccccc3n2N=O)c2ccccc21`, for which the T/C (dose: 50.0 mg/kg/injection, schedule: Q01DX001 (ip), vehicle: saline) is 102 % of control; the T/C (dose: 100.0 mg/kg/injection, schedule: Q01DX001 (ip), vehicle: saline) was 93 % of control; the T/C (dose: 200.0 mg/kg/injection, schedule: Q01DX001 (ip), vehicle: saline) was 96 % of control; the T/C (dose: 400.0 mg/kg/injection, schedule: Q01DX001 (ip), vehicle: saline) is 96 % of control.
Turning to `CCOC(=O)CNc1ccc(C)c(F)c1`, the T/C (dose: 25.0 mg/kg/injection, schedule: Q04DX002 (ip), vehicle: Klucel (hydroxypropylcellulose) (HPC)) was 98 % of control; the T/C (dose: 50.0 mg/kg/injection, schedule: Q04DX002 (ip), vehicle: Klucel (hydroxypropylcellulose) (HPC)) was 98 % of control; the T/C (dose: 100.0 mg/kg/injection, schedule: Q04DX002 (ip), vehicle: Klucel (hydroxypropylcellulose) (HPC)) is 97 % of control and 109 % of control.
Regarding `NC(=NCc1ccccc1)c1ccc(N=C(N)c2ccc(C(N)=Nc3ccc(C(N)=NCc4ccccc4)cc3)cc2)cc1`, the T/C is 95 % of control (dose: 5.0 mg/kg/injection, schedule: Q01DX001 (ip), vehicle: water); 119 % of control (dose: 6.25 mg/kg/injection, schedule: Q01DX009 (ip), vehicle: saline); 96 % of control (dose: 10.0 mg/kg/injection, schedule: Q01DX001 (ip), vehicle: water); 153 % of control (dose: 12.5 mg/kg/injection, schedule: Q01DX009 (ip), vehicle: saline); 95 % of control (dose: 12.5 mg/kg/injection, schedule: Q01DX015 (oral), vehicle: water); 98 % of control (dose: 15.0 mg/kg/injection, schedule: Q01DX001 (ip), vehicle: water). Further, the T/C (dose: 18.0 mg/kg/injection, schedule: Q01DX015 (ip), vehicle: water) is 249 % of control; the T/C (dose: 20.0 mg/kg/injection, schedule: Q01DX001 (ip), vehicle: water) is 107 % of control; the T/C (dose: 25.0 mg/kg/injection, schedule: Q01DX009 (ip), vehicle: saline) is 114 % of control; the T/C (dose: 25.0 mg/kg/injection, schedule: Q01DX015 (ip), vehicle: water) is 222 % of control and 256 % of control; the T/C (dose: 25.0 mg/kg/injection, schedule: Q01DX015 (oral), vehicle: water) is 91 % of control; the T/C (dose: 50.0 mg/kg/injection, schedule: Q01DX015 (oral), vehicle: water) is 98 % of control. In addition, under “dose: 100.0 mg/kg/injection, schedule: Q01DX015 (oral), vehicle: water”, the T/C is 98 % of control.
`O=CNc1ccc(Br)cc1`: the T/C (dose: 50.0 mg/kg/injection, schedule: Q04DX003 (ip), vehicle: Klucel (hydroxypropylcellulose) (HPC)) is 97 % of control; the T/C under setting [8] is 98 % of control; the T/C under setting [9] was 97 % of control; the T/C under setting [10] is 98 % of control; the T/C under setting [11] is 100 % of control.
With `COc1cc(N(CCCl)CCCl)ccc1C=Nc1cccc(Cl)c1`, the T/C is, setting by setting: under setting [4], 114 % of control; under setting [5], 111 % of control; under setting [6], 100 % of control; under setting [7], 100 % of control.
Turning to `CC(=O)OCC1OC(Oc2ccccc2)C(OC(C)=O)C(OC(C)=O)C(OC(C)=O)C1OC(C)=O` (stereo not given), the T/C (dose: 50.0 mg/kg/injection, schedule: Q01DX009 (ip), vehicle: Klucel (hydroxypropylcellulose) (HPC)) was 104 % of control; the T/C under setting [8] is 96 % of control; the T/C under setting [10] is 96 % of control.
`CC1=CC(=O)CC(C)C2CC(=C(C)C)CC12` (stereo not given): the T/C runs as follows: under setting [9], 100 % of control; under setting [11], 108 % of control; under setting [12], 100 % of control.
Turning to `Nc1nc2ncc(CCCNc3ccc(C(=O)NC(CCC(=O)O)C(=O)O)cc3)nc2c(=O)[nH]1` (stereo not given), the T/C is 94 % of control under setting [4], 108 % of control under setting [5] and 94 % of control under setting [6].
For the molecule `COc1ccc2c(c1)c1c(C)c3cnccc3c(C)c1n2CCCN`, the T/C (dose: 0.5 mg/kg/injection, schedule: Q01DX009 (ip), vehicle: saline) was 96 % of control; the T/C (dose: 1.0 mg/kg/injection, schedule: Q01DX009 (ip), vehicle: saline) was 102 % of control; the T/C (dose: 3.0 mg/kg/injection, schedule: Q01DX009 (ip), vehicle: saline) was 104 % of control; the T/C (dose: 3.0 mg/kg/injection, schedule: Q04DX003 (ip), vehicle: saline) was 104 % of control; the T/C (dose: 6.0 mg/kg/injection, schedule: Q01DX009 (ip), vehicle: saline) is 112 % of control; the T/C (dose: 6.0 mg/kg/injection, schedule: Q04DX003 (ip), vehicle: saline) was 104 % of control. The T/C runs as follows: (dose: 12.0 mg/kg/injection, schedule: Q01DX009 (ip), vehicle: saline) 106 % of control; (dose: 12.0 mg/kg/injection, schedule: Q04DX003 (ip), vehicle: saline) 107 % of control.
`COC(=O)[C@@H]1C2C=CC(C2)[C@@H]1C(=O)OC`: the T/C by setting is: (dose: 100.0 mg/kg/injection, schedule: Q01DX009 (ip), vehicle: saline with Tween-80) 101 % of control; (dose: 200.0 mg/kg/injection, schedule: Q01DX009 (ip), vehicle: saline with Tween-80) 104 % of control; (dose: 400.0 mg/kg/injection, schedule: Q01DX009 (ip), vehicle: saline with Tween-80) 104 % of control.
In the case of `CCN(CC)C(=O)Nc1ccc([N+](=O)[O-])cc1`, the T/C was 97 % of control under setting [5]; 109 % of control under setting [9]; 101 % of control under setting [6]; 96 % of control under setting [11]; 97 % of control under setting [7]; 107 % of control under setting [12].

(Values after PubChem BioAssay AID248 (DTP/NCI, 2004).)
